{"source": "patent US20010044449A1", "about": "“REMEDIES FOR DRUG ADDICTION” (priority 1997, published 2001)", "key": {"[1]": {"test_system": "Sprague Dawley strain (SD strain) male rats", "assay": "Conditioned place preference (CPP) method, psychic dependence induced by cocaine"}, "[2]": {"test_system": "Sprague Dawley strain (SD strain) male rats", "assay": "Conditioned place preference (CPP) method, psychic dependence induced by morphine", "details": "for Psychic dependence and aversion of compound alone (period in drug- or solvent-conditioned box): compound alone vs solvent control group"}, "[3]": {"test_system": "dopamine release in the nucleus accumbens", "assay": "High K+ stimulated dopamine release from nucleus accumbens slices (HPLC-ECD)", "format": "cell-based", "details": "rat nucleus accumbens slices, 20 mM high K+ stimulation; FIG. 11"}, "ddY strain male mouse": {"test_system": "ddY strain male mouse", "assay": "Naloxone-induced withdrawal syndrome in morphine-dependent mouse (physical dependence)", "format": "in vivo", "details": "for Blepharoptosis: numbers of mouse manifesting withdrawal syndrome/numbers of total mouse / Diarrhea: numbers of mouse manifesting withdrawal syndrome/numbers of total mouse / Fore paw tremor: numbers of mouse manifesting withdrawal syndrome/numbers of total mouse / Jumping: numbers of mouse manifesting withdrawal syndrome/numbers of total mouse / Rearing: numbers of mouse manifesting withdrawal syndrome/numbers of total mouse / Wobbling: numbers of mouse manifesting withdrawal syndrome/numbers of total mouse: naloxone 3 mg/kg"}, "SD strain male rats": {"test_system": "SD strain male rats", "assay": "Mecamylamine-induced nicotine withdrawal aversion (CPP operant boxes)", "format": "in vivo, rat", "protocol": "Animals used were SD strain male rats in this experiment. Experiments used were CPP operant boxes. Experiments were performed by using an aversive model in a nicotine withdrawal syndrome induced by mecamylamine, that is, a nicotine receptor antagonist. (Tsutomu Suzuki, Molecular Medicine, 32, 140 (1995); Suzuki, T. et al., Eur. J. Pharm., 314, 281 (1996); Maldonado, R. et al., J. Pharmacol. Exp. Ther., 261, 669 (1992)). Mini-osmotic pump (Alzet 2001) injected with nicotine (1 μl/hr, for seven days) was implanted under dorsal skin of the rats. An aqueous solution at a concentration of 121.4 mg/ ml was prepared so that a nicotine dose was adjusted to 10 mg/kg/day. Then, the aqueous solution was filled into the mini-osmotic pump. The rats were given conditioning training by the following counter-balance method. In the morning of the seventh day after the implantation of the mini-osmotic pump, mecamylamine (1 mg/ml), that is, nicotine receptor antagonist or physiological saline was subcutaneously injected. Then, the rats were placed in one compartment for 60 minutes. […] The periods in which the rats remained in each compartment colored white or black were measured for 15 minutes."}, "Rats": {"test_system": "Rats", "assay": "Cocaine drug discrimination test (feeding behavior with lever pressing)", "format": "in vivo, rat"}, "[4]": {"test_system": "rats with nicotine dependence", "details": "Malin et al. 1993; cited from earlier work"}, "chronic smokers": {"test_system": "chronic smokers", "details": "for three hours, double blind and cross-over test vs placebo; Karras et al. 1980; cited from earlier work"}, "[5]": {"details": "cocaine 10 mg/kg i.p. in combination with compound 0.1 mg/kg s.c., FIGS. 5 and 6"}, "[6]": {"details": "morphine 3 mg/kg s.c. in combination with compound 0.1 mg/kg s.c., FIGS. 1 and 2"}, "[7]": {"details": "Compound 3 0.003 mg/kg s.c. with morphine"}, "[8]": {"details": "Compound 3 0.01 mg/kg s.c. with morphine"}, "[9]": {"details": "Compound 3 0.03 mg/kg s.c. with morphine"}}, "note": "Structures can show the parent of a compound that is named as a salt. Marks after values point to notes of the source that are not given here.", "data": [{"compound": "17-(cyclopropylmethyl)-3,14β-dihydroxy-4,5α-epoxy-6β-[N-methyl-trans-3-(methoxycinnamide) morphinan tartrate [Compound 5]", "values": [{"measurement": "Development of drug dependence induced by cocaine (period rats remained in drug-conditioned box)", "setting": "[1]; [5]", "result": "inhibited the development of drug dependence induced by cocaine"}, {"measurement": "Psychic dependence and aversion of compound alone (period in drug- or solvent-conditioned box)", "setting": "[1]", "result": "did not produce psychic dependence and aversion"}]}, {"compound": "CN(C(=O)C#Cc1ccc(C(F)(F)F)cc1)[C@@H]1CC[C@@]2(O)[C@H]3Cc4ccc(O)c5c4[C@@]2(CCN3CC2CC2)[C@H]1O5.O=C(O)/C=C\\C(=O)O", "note": "[Compound 1, 17-(cyclopropylmethyl)-3,14β-dihydroxy-4,5α-epoxy-6β-[N-methyl-3-(4-trifluoromethylphenyl)propiolamide] morphinan maleate]", "values": [{"measurement": "Development of drug dependence induced by cocaine (period rats remained in drug-conditioned box)", "setting": "[1]; cocaine 4 mg/kg i.p. in combination with Compound 1 0.2 mg/kg i.p., FIG. 7", "result": "inhibited the development of drug dependence induced by cocaine"}, {"measurement": "Psychic dependence and aversion of compound alone (period in drug- or solvent-conditioned box)", "setting": "[1]", "result": "did not produce psychic dependence and aversion"}, {"measurement": "Psychic dependence and aversion of compound alone (period in drug- or solvent-conditioned box)", "setting": "[2]", "result": "did not develop psychic dependence and aversion"}, {"measurement": "Development of drug dependence caused by morphine (period rats remained in drug-conditioned box)", "setting": "[2]; [6]", "result": "inhibited the development of drug dependence caused by morphine"}]}, {"compound": "Cc1cccc(/C=C/C(=O)N(C)[C@@H]2CC[C@@]3(O)[C@H]4Cc5ccc(O)c6c5[C@@]3(CCN4CC3CC3)[C@H]2O6)c1", "note": "[Compound 2, 17-(cyclopropylmethyl)-3,14β-dihydroxy-4,5α-epoxy-6β-(N-methyl-3-methylcinnamide) morphinan hydrochloride]", "values": [{"measurement": "Psychic dependence and aversion of compound alone (period in drug- or solvent-conditioned box)", "setting": "[2]", "result": "did not develop psychic dependence and aversion"}, {"measurement": "Development of drug dependence caused by morphine (period rats remained in drug-conditioned box)", "setting": "[2]; [6]", "result": "inhibited the development of drug dependence caused by morphine"}]}, {"compound": "CN(C(=O)/C=C/c1ccoc1)[C@@H]1CC[C@@]2(O)[C@H]3Cc4ccc(O)c5c4[C@@]2(CCN3CC2CC2)[C@H]1O5", "note": "[Compound 3, 17-(cyclopropylmethyl)-3,14β-dihydroxy-4,5α-epoxy-6β-[N-methyl-trans-3-(3-furyl)acrylamide] morphinan hydrochloride]", "values": [{"measurement": "Dopamine release in the nucleus accumbens", "setting": "[3]", "result": "inhibited dopamine release in the nucleus accumbens"}, {"measurement": "Incidence rates of jumping, shaking, and diarrhea", "setting": "ddY strain male mouse; 0.03 mg/kg, compared with morphine alone group", "result": "significantly decreased"}, {"measurement": "Body weight reduction (withdrawal)", "setting": "ddY strain male mouse; 0.01 or 0.03 mg/kg, compared with morphine alone group, FIG. 4", "result": "significant suppression of body weight reduction"}, {"measurement": "Blepharoptosis: numbers of mouse manifesting withdrawal syndrome/numbers of total mouse", "setting": "ddY strain male mouse; [7]", "result": "10/10"}, {"measurement": "Diarrhea: numbers of mouse manifesting withdrawal syndrome/numbers of total mouse", "setting": "ddY strain male mouse; [7]", "result": "7/10"}, {"measurement": "Fore paw tremor: numbers of mouse manifesting withdrawal syndrome/numbers of total mouse", "setting": "ddY strain male mouse; [7]", "result": "9/10"}, {"measurement": "Jumping: numbers of mouse manifesting withdrawal syndrome/numbers of total mouse", "setting": "ddY strain male mouse; [7]", "result": "3/10"}, {"measurement": "Rearing: numbers of mouse manifesting withdrawal syndrome/numbers of total mouse", "setting": "ddY strain male mouse; [7]", "result": "10/10"}, {"measurement": "Wobbling: numbers of mouse manifesting withdrawal syndrome/numbers of total mouse", "setting": "ddY strain male mouse; [7]", "result": "7/10"}, {"measurement": "Blepharoptosis: numbers of mouse manifesting withdrawal syndrome/numbers of total mouse", "setting": "ddY strain male mouse; [8]", "result": "10/10"}, {"measurement": "Diarrhea: numbers of mouse manifesting withdrawal syndrome/numbers of total mouse", "setting": "ddY strain male mouse; [8]", "result": "6/10"}, {"measurement": "Fore paw tremor: numbers of mouse manifesting withdrawal syndrome/numbers of total mouse", "setting": "ddY strain male mouse; [8]", "result": "10/10"}, {"measurement": "Jumping: numbers of mouse manifesting withdrawal syndrome/numbers of total mouse", "setting": "ddY strain male mouse; [8]", "result": "5/10"}, {"measurement": "Rearing: numbers of mouse manifesting withdrawal syndrome/numbers of total mouse", "setting": "ddY strain male mouse; [8]", "result": "7/10"}, {"measurement": "Wobbling: numbers of mouse manifesting withdrawal syndrome/numbers of total mouse", "setting": "ddY strain male mouse; [8]", "result": "5/10"}, {"measurement": "Blepharoptosis: numbers of mouse manifesting withdrawal syndrome/numbers of total mouse", "setting": "ddY strain male mouse; [9]", "result": "10/10"}, {"measurement": "Diarrhea: numbers of mouse manifesting withdrawal syndrome/numbers of total mouse", "setting": "ddY strain male mouse; [9]", "result": "3/10*"}, {"measurement": "Fore paw tremor: numbers of mouse manifesting withdrawal syndrome/numbers of total mouse", "setting": "ddY strain male mouse; [9]", "result": "7/10"}, {"measurement": "Jumping: numbers of mouse manifesting withdrawal syndrome/numbers of total mouse", "setting": "ddY strain male mouse; [9]", "result": "3/10*"}, {"measurement": "Rearing: numbers of mouse manifesting withdrawal syndrome/numbers of total mouse", "setting": "ddY strain male mouse; [9]", "result": "8/10"}, {"measurement": "Wobbling: numbers of mouse manifesting withdrawal syndrome/numbers of total mouse", "setting": "ddY strain male mouse; [9]", "result": "3/10*"}, {"measurement": "Naloxone-induced withdrawal syndrome", "setting": "ddY strain male mouse; simultaneous administration with morphine, 0.003-0.03 mg/kg s.c.", "result": "relieved by the simultaneous administration of Compound 3 in a dose-dependent manner"}, {"measurement": "Aversive effect induced by mecamylamine (nicotine withdrawal)", "setting": "SD strain male rats; pretreatment 30 μg/kg vs physiological saline pretreatment", "result": "significantly inhibited the aversive effect"}, {"measurement": "Aversive effect induced by mecamylamine (nicotine withdrawal)", "setting": "SD strain male rats; pretreatment 10 or 30 μg/kg s.c., 30 minutes before mecamylamine, FIG. 10", "result": "inhibited by the pretreatment with Compound 3 (10 or 30 μg/kg) in a dose dependent manner"}, {"measurement": "Rates of feeding behavior with lever pressing (cocaine discrimination)", "setting": "Rats; Compound 3 10 μg/kg with cocaine 1.25, 2.5, or 5 mg/kg vs saline + cocaine, FIG. 8", "result": "significantly decreased"}, {"measurement": "Inhibitory effect of cocaine discrimination", "setting": "Rats; Compound 3 20 μg/kg with cocaine, compared with 10 μg/kg", "result": "enhanced"}, {"measurement": "Psychic dependence and aversion of compound alone (period in drug- or solvent-conditioned box)", "setting": "[2]", "result": "did not produce psychic dependence and aversion"}, {"measurement": "Development of drug dependence caused by morphine (period rats remained in drug-conditioned box)", "setting": "[2]; morphine 5 mg/kg s.c. in combination with Compound 3 0.1 or 0.03 mg/kg s.c., FIG. 3", "result": "inhibited the development of drug dependence caused by morphine"}]}, {"compound": "Cc1cccc(C#CC(=O)N(C)[C@@H]2CC[C@@]3(O)[C@H]4Cc5ccc(O)c6c5[C@@]3(CCN4CC3CC3)[C@H]2O6)c1", "note": "[Compound 4, 17-(cyclopropylmethyl)-3,14β-dihydroxy-4,5α-epoxy-6β-[N-methyl-3-(3-methylphenyl)propiolamide] morphinan hydrochloride]", "values": [{"measurement": "Development of drug dependence induced by cocaine (period rats remained in drug-conditioned box)", "setting": "[1]; [5]", "result": "inhibited the development of drug dependence induced by cocaine"}, {"measurement": "Psychic dependence and aversion of compound alone (period in drug- or solvent-conditioned box)", "setting": "[1]", "result": "did not produce psychic dependence and aversion"}]}, {"compound": "CN1CC[C@]23c4c5ccc(O)c4O[C@H]2[C@@H](O)C=C[C@H]3[C@H]1C5", "note": "[morphine, reference compound]", "values": [{"measurement": "Withdrawal syndrome in rats with nicotine dependence", "setting": "[4]", "result": "inhibits the withdrawal syndrome"}, {"measurement": "Withdrawal syndrome after naloxone administration", "setting": "ddY strain male mouse; morphine alone 8 to 45 mg/kg s.c. twice a day for five days, naloxone 3 mg/kg s.c.", "result": "withdrawal syndrome was recognized"}]}, {"compound": "C=CCN1CC[C@]23c4c5ccc(O)c4O[C@H]2C(=O)CC[C@@]3(O)[C@H]1C5", "note": "[naloxone]", "values": [{"measurement": "Withdrawal syndrome in rats with nicotine dependence", "setting": "[4]", "result": "accelerates a withdrawal syndrome"}, {"measurement": "Intake of tobacco of chronic smokers", "setting": "chronic smokers", "result": "effective for a reduction in intake of tobacco"}]}, {"compound": "Oc1ccc2c3c1O[C@H]1c4[nH]c5c(c4C[C@@]4(O)[C@@H](C2)N(CC2CC2)CC[C@]314)C[C@@]1(O)[C@H]2Cc3ccc(O)c4c3[C@@]1(CCN2CC1CC1)[C@H]5O4", "note": "[nor-BNI, norbinaltorphimine, reference compound]", "values": [{"measurement": "Antagonism of the inhibitory effect of cocaine discrimination of Compound 3", "setting": "Rats; nor-BNI pretreatment, Compound 3 0.02 mg/kg + cocaine, FIG. 9", "result": "antagonized"}, {"measurement": "Antagonism of the inhibitory effect caused by Compound 3", "setting": "[2]; pretreatment 3 mg/kg, morphine 5 mg/kg s.c. + Compound 3 0.03 mg/kg s.c.", "result": "significantly antagonized"}]}]}
